Read-outs that look alike come from different tables or passages of the source.
Assays:
PDGFRA = PDGFRA (Homo sapiens, UniProt P16234); experiment: Selectivity screen PDGFRA; type: biochemical; conditions: 1 µM inhibitor, mean
Experimental: (§1) For the in vitro kinase assay, JAK3 (5–20 mU diluted in 50 mM Tris pH 7.5, 0.1 mM EGTA, 0.05% β-mercaptoethanol, 1 mg/ml BSA) was assayed against PDKtide ([…]) in a final volume of 25.5 µl containing 50 mM Tris pH 7.5, 0.1 mM EGTA, 0.05% β-mercaptoethanol, 100 µM substrate peptide, 10 mM magnesium acetate and 0.02 mM [33P-γ-ATP] (50–1000 cpm/pmole) and incubated for 30 min at room temperature. Assays were started by the addition of the ATP and stopped by addition of 5 µl of 0.5 M (3%) orthophosphoric acid and then harvested onto P81 Unifilter plates with a wash buffer of 50 mM orthophosphoric acid. To determine the Km for ATP, assays were run using 1, 5, 10, 20, 50, 100, 200, 400, 500 μM ATP and Km derived by non-linear regression fitting to the Michaelis–Menten equation v = Vmax[S]/(Km + [S]). IC50 values for inhibitors via non-linear regression using a parameter model: Y = Bottom + (Top–Bottom)/(1 + (IC50/X)^HillSlope). Non-linear regression was carried out in Prism (version 8). In vitro selectivity screen was carried out as described previously.

MPSK1 = MPSK1 (Homo sapiens, UniProt O75716); experiment: Selectivity screen MPSK1; type: biochemical; conditions: 1 µM inhibitor, mean
Experimental: as §1

MELK = MELK (Homo sapiens, UniProt Q14680); experiment: Selectivity screen MELK; type: biochemical; conditions: 1 µM inhibitor, mean
Experimental: as §1

MSK1 = MSK1 (Homo sapiens, UniProt O75582); experiment: Selectivity screen MSK1; type: biochemical; conditions: 1 µM inhibitor, mean
Chain of MSK1 (O75582 whole entry): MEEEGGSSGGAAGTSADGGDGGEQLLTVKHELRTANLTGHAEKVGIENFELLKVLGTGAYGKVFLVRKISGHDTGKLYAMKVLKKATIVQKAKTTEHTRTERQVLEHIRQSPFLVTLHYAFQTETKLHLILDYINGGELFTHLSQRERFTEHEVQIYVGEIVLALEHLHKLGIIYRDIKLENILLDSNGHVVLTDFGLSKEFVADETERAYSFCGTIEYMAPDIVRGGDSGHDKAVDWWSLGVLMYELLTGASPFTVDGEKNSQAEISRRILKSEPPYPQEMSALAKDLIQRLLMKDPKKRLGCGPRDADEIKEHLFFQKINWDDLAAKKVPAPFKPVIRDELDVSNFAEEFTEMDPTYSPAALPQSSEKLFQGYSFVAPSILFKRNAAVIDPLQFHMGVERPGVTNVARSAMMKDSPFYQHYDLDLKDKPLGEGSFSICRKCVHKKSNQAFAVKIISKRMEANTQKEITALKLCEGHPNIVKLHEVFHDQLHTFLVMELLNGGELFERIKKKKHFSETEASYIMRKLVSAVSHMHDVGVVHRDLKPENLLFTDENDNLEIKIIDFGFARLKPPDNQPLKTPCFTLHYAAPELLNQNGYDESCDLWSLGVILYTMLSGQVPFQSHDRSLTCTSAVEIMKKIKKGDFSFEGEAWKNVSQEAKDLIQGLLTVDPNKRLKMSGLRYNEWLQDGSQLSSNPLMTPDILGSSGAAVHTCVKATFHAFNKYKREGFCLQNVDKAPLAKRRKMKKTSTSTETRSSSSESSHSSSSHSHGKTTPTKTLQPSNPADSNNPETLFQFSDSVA
Experimental: as §1

MLK1 = MLK1 (Homo sapiens, UniProt P80192); experiment: Selectivity screen MLK1; type: biochemical; conditions: 1 µM inhibitor, mean
Experimental: as §1

RSK2 = RSK2 (Homo sapiens, UniProt P51812); experiment: Selectivity screen RSK2; type: biochemical; conditions: 1 µM inhibitor, mean
Experimental: as §1

[1] = test system: IL-4 induced STAT6 phosphorylation in BMDMs from JAK3 Cys905Ser knockin mice; experiment: IL-4 induced STAT6 phosphorylation in JAK3 Cys905Ser knockin BMDMs (immunoblot); type: cell-based, mouse; conditions: for IC50: Mus musculus, BMDM, 0.5 h, 10 ng/ml IL-4 30 min, pSTAT6 Tyr641 immunoblot, two independent experiments
Experimental: (§2) Figure 3 Effect of JAK3 inhibitors on IL-4 induced STAT6 phosphorylation. BMDMs were isolated from wild type and JAK3 Cys905Ser knockin mice. Cells were incubated with the indicated concentrations of inhibitor before stimulation for 30 min with 10 ng/ml IL-4. Cells were lysed and the levels of STAT6 phosphorylated at Tyr641 were assessed by immunoblotting. Levels of ERK1/2 were determined as a loading control.
(§3) Bone marrow derived macrophages (BMDMs) were cultured as described. Briefly, bone marrow was flushed in PBS from the femurs and tibias of mice. Cells were cultured on bacterial grade plastic for 7 days at 37 °C, 5% CO2. Cells were then detached using Versene (Gibco), re-plated on tissue culture plastic in BMDM media (in DMEM supplemented with 10% heat inactivated FBS (Labtech), 2 mM L-glutamine, 100 U/ml penicillin G, 100 μg/ml streptomycin and 0.25 μg/ml amphotericin, 5 ng/ml M-CSF) and used within 48 h. Where indicated cells were stimulated with 10 ng/ml IL-4, 10 ng/ml GM-CSF, 10 ng/ml IL-10 or 10 ng/ml IFNβ. All cytokines were from PeproTech.
(§4) Cells were lysed directly into SDS sample buffer and aliquots run on 10% polyacrylamide gels using standard methods. Proteins were transferred onto nitrocellulose membranes, and specific proteins were detected by immunoblotting. Antibodies against tyrosine phosphorylated STATs were from Cell Signaling Technology (phospho-STAT1 #9167, phospho-STAT3 #9131, phospho-STAT5 #4322 and phospho-STAT6 #9361). The total ERK1/2 antibody used as a loading control was also from cell Signaling Technology (#4695). HRP-conjugated secondary antibodies were obtained from Pierce. Bands were detected using Clarity ECL reagents from BioRad and imaged on a Licor Odyssey Fc system. Quantification was carried out using Licor Image Studio software. After correction for the ERK1/2 levels to account for loading differences, percentage inhibition was calculated relative to the IL-4 stimulated condition. IC50 values were calculated using the same methods as for the in vitro IC50 values.

TTBK1 = TTBK1 (Homo sapiens, UniProt Q5TCY1); experiment: Selectivity screen TTBK1; type: biochemical; conditions: 1 µM inhibitor, mean
Experimental: as §1

EPH-A4 = EPH-A4 (Homo sapiens, UniProt P54764); experiment: Selectivity screen EPH-A4; type: biochemical; conditions: 1 µM inhibitor, mean
Experimental: as §1

TGFBR1 = TGFBR1 (Homo sapiens, UniProt P36897); experiment: Selectivity screen TGFBR1; type: biochemical; conditions: 1 µM inhibitor, mean
Chain of TGFBR1 (P36897 34-503): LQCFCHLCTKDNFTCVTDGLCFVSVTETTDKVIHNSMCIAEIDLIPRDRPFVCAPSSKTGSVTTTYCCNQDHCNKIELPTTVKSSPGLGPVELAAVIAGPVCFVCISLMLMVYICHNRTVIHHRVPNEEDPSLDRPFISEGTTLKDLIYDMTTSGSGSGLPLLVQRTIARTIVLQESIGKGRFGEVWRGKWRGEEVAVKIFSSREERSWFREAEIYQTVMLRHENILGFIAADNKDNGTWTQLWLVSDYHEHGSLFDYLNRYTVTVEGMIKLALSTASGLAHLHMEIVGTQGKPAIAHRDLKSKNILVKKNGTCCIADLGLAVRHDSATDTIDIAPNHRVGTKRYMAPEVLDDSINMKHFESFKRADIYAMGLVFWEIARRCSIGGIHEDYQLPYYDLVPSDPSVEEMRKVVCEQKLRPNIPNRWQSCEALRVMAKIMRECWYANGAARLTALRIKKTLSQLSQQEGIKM
Experimental: as §1

PKBb = PKBb (Homo sapiens, UniProt P31751); experiment: Selectivity screen PKBb; type: biochemical; conditions: 1 µM inhibitor, mean; read-out: activity remaining in the presence of the inhibitor: PKBb
Experimental: as §1

CSK = CSK (Homo sapiens, UniProt P41240); experiment: Selectivity screen CSK; type: biochemical; conditions: 1 µM inhibitor, mean
Chain of CSK (P41240 whole entry): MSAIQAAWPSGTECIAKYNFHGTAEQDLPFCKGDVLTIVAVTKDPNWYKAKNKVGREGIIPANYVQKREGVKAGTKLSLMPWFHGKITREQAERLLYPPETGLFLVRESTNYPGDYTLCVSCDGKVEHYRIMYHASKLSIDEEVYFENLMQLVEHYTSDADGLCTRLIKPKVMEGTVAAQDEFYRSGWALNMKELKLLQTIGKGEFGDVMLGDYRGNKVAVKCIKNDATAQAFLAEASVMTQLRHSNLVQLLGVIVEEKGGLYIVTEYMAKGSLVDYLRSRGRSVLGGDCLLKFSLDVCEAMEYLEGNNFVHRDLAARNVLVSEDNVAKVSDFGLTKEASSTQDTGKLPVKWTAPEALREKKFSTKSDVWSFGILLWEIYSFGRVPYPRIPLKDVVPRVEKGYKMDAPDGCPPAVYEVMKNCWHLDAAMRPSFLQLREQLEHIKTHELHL
Experimental: as §1

IRAK4 = IRAK4 (Homo sapiens, UniProt Q9NWZ3); experiment: Selectivity screen IRAK4; type: biochemical; conditions: 1 µM inhibitor, mean
Experimental: as §1

MKK6 = MKK6 (Homo sapiens, UniProt P52564); experiment: Selectivity screen MKK6; type: biochemical; conditions: 1 µM inhibitor, mean
Chain of MKK6 (P52564 whole entry): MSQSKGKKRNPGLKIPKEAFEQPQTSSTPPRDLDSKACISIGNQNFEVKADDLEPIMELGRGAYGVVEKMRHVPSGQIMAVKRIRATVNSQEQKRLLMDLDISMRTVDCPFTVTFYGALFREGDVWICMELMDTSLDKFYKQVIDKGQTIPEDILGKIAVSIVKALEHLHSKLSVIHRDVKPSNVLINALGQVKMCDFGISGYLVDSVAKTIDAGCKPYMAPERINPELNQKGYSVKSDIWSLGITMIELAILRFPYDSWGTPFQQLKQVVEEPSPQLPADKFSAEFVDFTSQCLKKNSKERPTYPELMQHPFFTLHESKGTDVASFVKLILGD
Experimental: as §1

JNK1 = JNK1 (Homo sapiens, UniProt P45983); experiment: Selectivity screen JNK1; type: biochemical; conditions: 1 µM inhibitor, mean
Chain of JNK1 (P45983 whole entry): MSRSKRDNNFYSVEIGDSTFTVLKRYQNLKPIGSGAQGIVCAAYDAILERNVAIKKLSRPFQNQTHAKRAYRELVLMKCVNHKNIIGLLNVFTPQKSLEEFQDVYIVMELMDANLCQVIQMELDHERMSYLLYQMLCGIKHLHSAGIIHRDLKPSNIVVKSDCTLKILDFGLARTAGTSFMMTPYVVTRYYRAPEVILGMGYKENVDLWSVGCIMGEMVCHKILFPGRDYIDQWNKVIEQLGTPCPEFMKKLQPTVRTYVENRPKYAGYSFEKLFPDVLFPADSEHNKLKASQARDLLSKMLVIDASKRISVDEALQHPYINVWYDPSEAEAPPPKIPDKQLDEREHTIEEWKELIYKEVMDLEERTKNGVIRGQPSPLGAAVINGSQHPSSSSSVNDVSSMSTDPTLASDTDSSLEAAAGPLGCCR
Experimental: as §1

TYK2 = conditions: read-out: In vitro IC50 TYK2, cited from earlier work
NEK2a = NEK2a (Homo sapiens, UniProt P51955); experiment: Selectivity screen NEK2a; type: biochemical; conditions: 1 µM inhibitor, mean
Chain of NEK2a (P51955 whole entry): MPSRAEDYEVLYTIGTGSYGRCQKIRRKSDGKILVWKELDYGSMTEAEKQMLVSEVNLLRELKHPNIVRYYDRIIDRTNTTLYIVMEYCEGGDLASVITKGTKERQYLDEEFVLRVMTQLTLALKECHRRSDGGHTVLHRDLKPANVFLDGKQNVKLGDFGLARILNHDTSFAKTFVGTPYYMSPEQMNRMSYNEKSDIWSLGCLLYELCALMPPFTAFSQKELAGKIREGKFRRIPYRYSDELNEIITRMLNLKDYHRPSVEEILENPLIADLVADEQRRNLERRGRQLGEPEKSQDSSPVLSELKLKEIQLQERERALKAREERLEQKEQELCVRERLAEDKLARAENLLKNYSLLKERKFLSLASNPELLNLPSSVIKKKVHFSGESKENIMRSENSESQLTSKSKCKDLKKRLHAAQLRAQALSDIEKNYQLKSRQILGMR
Experimental: as §1

[2] = test system: IL-4 induced STAT6 phosphorylation in wild type BMDMs; experiment: IL-4 induced STAT6 phosphorylation in wild type BMDMs (immunoblot); type: cell-based; conditions: Mus musculus, BMDM, 0.5 h; 10 ng/ml IL-4 30 min, pSTAT6 Tyr641 immunoblot, two independent experiments
Experimental: as §2, §3, §4

MST2 = MST2 (Homo sapiens, UniProt Q13188); experiment: Selectivity screen MST2; type: biochemical; conditions: 1 µM inhibitor, mean
Chain of MST2 (Q13188 whole entry): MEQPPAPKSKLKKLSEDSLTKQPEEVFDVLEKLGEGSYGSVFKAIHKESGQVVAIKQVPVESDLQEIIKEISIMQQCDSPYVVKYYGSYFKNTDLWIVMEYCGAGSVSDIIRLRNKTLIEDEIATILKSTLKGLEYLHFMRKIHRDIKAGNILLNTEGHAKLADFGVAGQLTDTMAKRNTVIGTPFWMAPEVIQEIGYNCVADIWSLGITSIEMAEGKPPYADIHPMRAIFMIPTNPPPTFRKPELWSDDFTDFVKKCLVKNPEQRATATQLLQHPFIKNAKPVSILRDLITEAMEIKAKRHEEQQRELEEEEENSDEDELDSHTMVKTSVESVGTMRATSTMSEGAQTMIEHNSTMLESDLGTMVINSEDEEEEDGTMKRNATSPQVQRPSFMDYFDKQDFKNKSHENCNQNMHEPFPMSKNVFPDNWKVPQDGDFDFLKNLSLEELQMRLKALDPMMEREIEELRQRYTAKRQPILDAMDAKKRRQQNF
Experimental: as §1

ULK1 = ULK1 (Homo sapiens, UniProt O75385); experiment: Selectivity screen ULK1; type: biochemical; conditions: 1 µM inhibitor, mean
Chain of ULK1 (O75385 whole entry): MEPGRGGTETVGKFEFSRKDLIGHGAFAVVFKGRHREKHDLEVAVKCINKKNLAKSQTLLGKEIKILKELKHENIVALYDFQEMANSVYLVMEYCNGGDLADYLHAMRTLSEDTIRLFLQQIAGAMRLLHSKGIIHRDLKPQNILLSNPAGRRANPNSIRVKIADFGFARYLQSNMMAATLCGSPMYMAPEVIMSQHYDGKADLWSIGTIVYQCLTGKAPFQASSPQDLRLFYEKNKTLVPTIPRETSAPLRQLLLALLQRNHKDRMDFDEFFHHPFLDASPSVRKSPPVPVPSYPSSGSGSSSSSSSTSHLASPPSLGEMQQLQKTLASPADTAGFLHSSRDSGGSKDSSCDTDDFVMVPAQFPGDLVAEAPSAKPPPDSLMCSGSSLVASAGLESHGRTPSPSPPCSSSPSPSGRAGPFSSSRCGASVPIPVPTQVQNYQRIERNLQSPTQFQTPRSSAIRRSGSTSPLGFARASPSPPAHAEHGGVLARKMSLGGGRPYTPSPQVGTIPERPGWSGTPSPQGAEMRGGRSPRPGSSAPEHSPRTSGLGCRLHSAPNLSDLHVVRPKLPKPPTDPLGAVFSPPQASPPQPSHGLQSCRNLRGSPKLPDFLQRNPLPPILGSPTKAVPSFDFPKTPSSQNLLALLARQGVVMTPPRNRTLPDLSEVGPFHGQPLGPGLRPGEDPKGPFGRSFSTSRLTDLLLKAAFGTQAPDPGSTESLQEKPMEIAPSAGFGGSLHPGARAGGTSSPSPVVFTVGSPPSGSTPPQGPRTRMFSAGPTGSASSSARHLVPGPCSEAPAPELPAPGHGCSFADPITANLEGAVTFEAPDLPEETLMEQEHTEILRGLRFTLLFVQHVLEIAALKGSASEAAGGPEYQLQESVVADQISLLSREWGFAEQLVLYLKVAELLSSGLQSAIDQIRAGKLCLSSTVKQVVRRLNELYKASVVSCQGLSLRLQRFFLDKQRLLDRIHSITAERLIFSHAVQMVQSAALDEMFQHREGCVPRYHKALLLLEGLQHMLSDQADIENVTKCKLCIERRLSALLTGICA
Experimental: as §1

CAMKKb = CAMKKb (Homo sapiens, UniProt Q96RR4); experiment: Selectivity screen CAMKKb; type: biochemical; conditions: 1 µM inhibitor, mean
JNK2 = JNK2 (Homo sapiens, UniProt P45984); experiment: Selectivity screen JNK2; type: biochemical; conditions: 1 µM inhibitor, mean
Chain of JNK2 (P45984 whole entry): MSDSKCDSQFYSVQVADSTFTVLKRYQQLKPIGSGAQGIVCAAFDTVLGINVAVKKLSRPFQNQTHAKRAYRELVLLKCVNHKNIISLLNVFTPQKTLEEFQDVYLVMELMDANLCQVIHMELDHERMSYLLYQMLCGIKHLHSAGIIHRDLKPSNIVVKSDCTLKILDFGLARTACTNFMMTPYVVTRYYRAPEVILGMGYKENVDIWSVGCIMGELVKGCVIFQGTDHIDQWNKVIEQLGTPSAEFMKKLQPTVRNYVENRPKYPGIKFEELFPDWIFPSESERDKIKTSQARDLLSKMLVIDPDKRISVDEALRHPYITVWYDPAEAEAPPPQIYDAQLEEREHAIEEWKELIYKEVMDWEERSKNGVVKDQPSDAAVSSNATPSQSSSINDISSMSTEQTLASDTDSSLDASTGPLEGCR
Experimental: as §1

IRAK1 = IRAK1 (Homo sapiens, UniProt P51617); experiment: Selectivity screen IRAK1; type: biochemical; conditions: 1 µM inhibitor, mean
Experimental: as §1

| SMILES | activity remaining in the presence of the inhibitor: PDGFRA (PDGFRA) | activity remaining in the presence of the inhibitor: MPSK1 (MPSK1) | activity remaining in the presence of the inhibitor: MELK (MELK) | activity remaining in the presence of the inhibitor: MSK1 (MSK1) | activity remaining in the presence of the inhibitor: MLK1 (MLK1) | activity remaining in the presence of the inhibitor: RSK2 (RSK2) | IC50 [1] | activity remaining in the presence of the inhibitor: TTBK1 (TTBK1) | activity remaining in the presence of the inhibitor: EPH-A4 (EPH-A4) | activity remaining in the presence of the inhibitor: TGFBR1 (TGFBR1) | remaining activity at 1 µM (PKBb) | activity remaining in the presence of the inhibitor: CSK (CSK) | activity remaining in the presence of the inhibitor: IRAK4 (IRAK4) | activity remaining in the presence of the inhibitor: MKK6 (MKK6) | activity remaining in the presence of the inhibitor: JNK1 (JNK1) | IC50 (TYK2; ATP 25 μM) | activity remaining in the presence of the inhibitor: NEK2a (NEK2a) | IC50 [2] | activity remaining in the presence of the inhibitor: MST2 (MST2) | activity remaining in the presence of the inhibitor: ULK1 (ULK1) | also measured |
| --- | --- | --- | --- | --- | --- | --- | --- | --- | --- | --- | --- | --- | --- | --- | --- | --- | --- | --- | --- | --- | --- |
| C=CC(=O)Nc1cccc(CNc2nc(Nc3ccc(N4CCN(C)CC4)cc3OC)ncc2Cl)c1 [TL6-144] | 67 | 91 | 69 | 86 | 20 | 73 | […] | 80 | 104 | 83 | 107% | 113 | 85 | 104 | 83 | […] | 96 | 0.55 µM | 83 | 65 | inhibition of IL-4 induced STAT6 phosphorylation, JAK3 Cys905Ser knockin BMDMs ([1]; 10 μM inhibitor): did not inhibit; activity remaining in the presence of the inhibitor: CAMKKb (CAMKKb): 6; activity remaining in the presence of the inhibitor: JNK2 (JNK2): 98; activity remaining in the presence of the inhibitor: IRAK1 (IRAK1): 81 |
| C=CC(=O)N1C[C@H](Nc2ncnc3[nH]ccc23)CC[C@@H]1C [PF-06651600, 1-((2S,5R)-5-((7H-Pyrrolo[2,3-d]pyrimidin-4-yl)amino)-2-methylpiperidin-1-yl)prop-2-en-1-one, reference compound] | – | – | – | – | – | – | > 10 µM | – | – | – | – | – | – | – | – | – | – | 0.56 µM | – | – | IC50 (TYK2; ATP 12 μM): > 10 µM |
| C=CC(=O)Nc1cccc(CNc2nc(Nc3ccc(N4CCOCC4)cc3)ncc2Cl)c1 [TL8-52] | 35 | 98 | 66 | 54 | 3 | 53 | 0.54 µM | 100 | 99 | 104 | 107% | 73 | 77 | 105 | 104 | 0.32 µM | 135 | 0.1 µM | 48 | 48 | activity remaining in the presence of the inhibitor: CAMKKb (CAMKKb): 22; activity remaining in the presence of the inhibitor: JNK2 (JNK2): 95; activity remaining in the presence of the inhibitor: IRAK1 (IRAK1): 54 |

Source: paper PMC8115619, “Generation of a chemical genetic model for JAK3” (Scientific Reports, 2021)
